Measured values reported in patent publication US20240109917A1 (ACTELION PHARMACEUTICALS LTD, priority 2020, published 2024).
Like-named read-outs stand apart in the source and are kept apart here.

Columns and labels:
[1] = target: Tb-labeled inactive PDGFRβ (Homo sapiens (Human), UniProt P09619); assay: PDGFRβ LanthaScreen Assay; format: binding; conditions: read-out: PDGFR Lantha IC50
PDGFRβ = PDGFRβ (Rattus norvegicus (Rat), UniProt Q05030); assay: PDGFRβ Cellular Assay (PDGFRb P-Y751 HTRF in A10 cells stimulated with PDGF-BB); format: cell-based
Procedure, shortened: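 Phospho-Y751 PDGFRβ was measured by HTRF in lysates of A10 rat cells. Cells received compound for 3 hours before PDGF-BB stimulation (100 ng/mL working stock).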

PDGFRβ, sequence (Q05030 32-1097): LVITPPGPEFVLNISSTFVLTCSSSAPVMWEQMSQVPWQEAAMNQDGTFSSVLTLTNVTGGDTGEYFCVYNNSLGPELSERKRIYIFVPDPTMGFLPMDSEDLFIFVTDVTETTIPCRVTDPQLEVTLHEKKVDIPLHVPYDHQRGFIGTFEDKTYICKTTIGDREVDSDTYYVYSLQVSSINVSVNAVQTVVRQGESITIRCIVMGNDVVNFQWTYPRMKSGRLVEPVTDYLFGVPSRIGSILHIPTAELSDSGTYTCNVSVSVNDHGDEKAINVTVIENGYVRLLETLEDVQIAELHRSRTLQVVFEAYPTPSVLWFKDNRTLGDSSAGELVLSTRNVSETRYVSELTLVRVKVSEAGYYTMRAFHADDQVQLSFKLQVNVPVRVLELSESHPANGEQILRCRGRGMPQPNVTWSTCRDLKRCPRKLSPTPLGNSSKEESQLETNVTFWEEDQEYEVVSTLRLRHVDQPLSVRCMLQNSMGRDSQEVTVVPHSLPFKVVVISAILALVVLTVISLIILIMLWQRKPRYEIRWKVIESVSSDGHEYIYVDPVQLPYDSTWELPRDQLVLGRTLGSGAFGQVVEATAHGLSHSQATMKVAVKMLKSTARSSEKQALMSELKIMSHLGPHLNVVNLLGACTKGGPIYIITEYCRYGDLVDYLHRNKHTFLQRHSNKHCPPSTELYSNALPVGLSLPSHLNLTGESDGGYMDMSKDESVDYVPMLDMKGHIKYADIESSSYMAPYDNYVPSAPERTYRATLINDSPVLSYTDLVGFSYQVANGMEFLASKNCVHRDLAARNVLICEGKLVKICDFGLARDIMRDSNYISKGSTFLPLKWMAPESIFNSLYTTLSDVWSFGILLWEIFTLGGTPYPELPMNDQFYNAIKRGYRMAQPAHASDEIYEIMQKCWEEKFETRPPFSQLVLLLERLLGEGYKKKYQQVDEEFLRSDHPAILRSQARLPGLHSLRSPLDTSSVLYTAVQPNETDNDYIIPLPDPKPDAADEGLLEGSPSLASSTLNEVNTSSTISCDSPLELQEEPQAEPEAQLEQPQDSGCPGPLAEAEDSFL
Tb-labeled inactive PDGFRβ, sequence (P09619 33-1106): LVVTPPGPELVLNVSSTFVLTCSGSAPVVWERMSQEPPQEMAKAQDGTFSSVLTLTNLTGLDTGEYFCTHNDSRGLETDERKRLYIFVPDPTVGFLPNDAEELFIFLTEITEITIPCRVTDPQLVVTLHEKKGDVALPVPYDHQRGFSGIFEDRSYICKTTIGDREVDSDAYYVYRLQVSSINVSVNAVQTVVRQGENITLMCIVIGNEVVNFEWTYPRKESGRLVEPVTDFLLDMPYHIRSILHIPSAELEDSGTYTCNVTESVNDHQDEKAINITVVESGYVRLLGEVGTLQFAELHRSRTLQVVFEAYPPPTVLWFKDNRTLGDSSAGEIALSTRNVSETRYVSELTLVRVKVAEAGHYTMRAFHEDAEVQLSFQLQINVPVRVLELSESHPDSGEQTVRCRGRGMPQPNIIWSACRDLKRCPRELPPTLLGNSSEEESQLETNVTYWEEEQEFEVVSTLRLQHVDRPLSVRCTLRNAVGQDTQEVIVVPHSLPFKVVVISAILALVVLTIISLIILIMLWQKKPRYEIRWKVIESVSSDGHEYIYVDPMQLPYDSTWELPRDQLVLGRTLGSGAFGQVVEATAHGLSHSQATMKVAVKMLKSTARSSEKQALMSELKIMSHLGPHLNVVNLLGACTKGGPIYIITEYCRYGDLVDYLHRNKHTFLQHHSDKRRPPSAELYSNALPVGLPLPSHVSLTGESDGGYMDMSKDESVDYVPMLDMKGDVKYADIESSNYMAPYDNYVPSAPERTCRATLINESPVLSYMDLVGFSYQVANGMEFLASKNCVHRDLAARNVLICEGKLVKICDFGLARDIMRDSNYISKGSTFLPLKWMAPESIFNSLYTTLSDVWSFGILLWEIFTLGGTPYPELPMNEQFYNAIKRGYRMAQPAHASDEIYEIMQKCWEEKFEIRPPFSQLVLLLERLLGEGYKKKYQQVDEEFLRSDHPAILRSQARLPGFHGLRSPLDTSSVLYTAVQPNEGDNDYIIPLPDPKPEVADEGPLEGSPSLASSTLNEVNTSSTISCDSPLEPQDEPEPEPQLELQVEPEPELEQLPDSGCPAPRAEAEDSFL

Cc1ncc(NC(=O)CN2CC(C)(C)C2)cc1NC(=O)c1cnn2cc(-c3c[nH]c4ccccc34)sc12 [Example 287, N-(5-(2-(3,3-dimethylazetidin-1-yl)acetamido)-2-methylpyridin-3-yl)-2-(1H-indol-3-yl)pyrazolo[5,1-b]thiazole-7-carboxamide]
IC50 [1]: 0.8 nM | IC50 (PDGFRβ; read-out: PDGFR Cellular IC50): 1.8 nM

Cc1ncc(NC(=O)OC[C@@H]2CCCN2C)cc1NC(=O)c1cnn2cc(-c3cccc4c3cnn4C)sc12 [Example 257, (S)-(1-methylpyrrolidin-2-yl)methyl (6-methyl-5-(2-(1-methyl-1H-indazol-4-yl)pyrazolo[5,1-b]thiazole-7-carboxamido)pyridin-3-yl)carbamate]
IC50 [1]: 2.6 nM | IC50 (PDGFRβ; read-out: PDGFR Cellular IC50): 13.1 nM

Cc1ncc(NC(=O)CN2CC(C)(C)C2)cc1NC(=O)c1cnn2cc(-c3cccc4c3cnn4C)sc12 [Example 286, N-(5-(2-(3,3-dimethylazetidin-1-yl)acetamido)-2-methylpyridin-3-yl)-2-(1-methyl-1H-indazol-4-yl)pyrazolo[5,1-b]thiazole-7-carboxamide]
IC50 [1]: 1 nM | IC50 (PDGFRβ; read-out: PDGFR Cellular IC50): 1.4 nM

COc1ncccc1-c1cn2ncc(C(=O)Nc3cc(NC(=O)C[C@H]4CCCN4C(C)C)cnc3C)c2s1 [Example 309, (R)—N-(5-(2-(1-isopropylpyrrolidin-2-yl)acetamido)-2-methylpyridin-3-yl)-2-(2-methoxypyridin-3-yl)pyrazolo[5,1-b]thiazole-7-carboxamide]
IC50 [1]: 1.5 nM | IC50 (PDGFRβ; read-out: PDGFR Cellular IC50): 4.2 nM

Cc1ncc(NC(=O)CN2CC(C)(C)C2)cc1NC(=O)c1cnn2cc(-c3ccc(CO)s3)sc12 [Example 278, N-(5-(2-(3,3-dimethylazetidin-1-yl)acetamido)-2-methylpyridin-3-yl)-2-(5-(hydroxymethyl)thiophen-2-yl)pyrazolo[5,1-b]thiazole-7-carboxamide]
IC50 [1]: 1.4 nM | IC50 (PDGFRβ; read-out: PDGFR Cellular IC50): 1.5 nM

CNC(=O)Cn1cc(-c2cn3ncc(C(=O)Nc4cc(NC(=O)CN5CC(C)(C)C5)cnc4C)c3s2)cn1 [Example 279, N-(5-(2-(3,3-dimethylazetidin-1-yl)acetamido)-2-methylpyridin-3-yl)-2-(1-(2-(methylamino)-2-oxoethyl)-1H-pyrazol-4-yl)pyrazolo[5,1-b]thiazole-7-carboxamide]
IC50 [1]: 8.6 nM | IC50 (PDGFRβ; read-out: PDGFR Cellular IC50): 134 nM

Cc1ncc(NC(=O)CN2CC(C)(C)C2)cc1NC(=O)c1cnn2cc(-c3ccc(CO)o3)sc12 [Example 292, N-(5-(2-(3,3-dimethylazetidin-1-yl)acetamido)-2-methylpyridin-3-yl)-2-(5-(hydroxymethyl)furan-2-yl)pyrazolo[5,1-b]thiazole-7-carboxamide]
IC50 [1]: 2.2 nM | IC50 (PDGFRβ; read-out: PDGFR Cellular IC50): 4.2 nM

Cc1ncc(NC(=O)C[C@@H]2CCCCN2C(C)C)cc1NC(=O)c1cnn2cc(-c3cnn(C)c3)sc12 [Example 305, (S)—N-(5-(2-(1-isopropylpiperidin-2-yl)acetamido)-2-methylpyridin-3-yl)-2-(1-methyl-1H-pyrazol-4-yl)pyrazolo[5,1-b]thiazole-7-carboxamide]
IC50 [1]: 57.8 nM | IC50 (PDGFRβ; read-out: PDGFR Cellular IC50): 308 nM

COc1ncccc1-c1cn2ncc(C(=O)Nc3cc(NC(=O)CN4CCO[C@H](C)C4)cnc3C)c2s1 [Example 318, (R)-2-(2-methoxypyridin-3-yl)-N-(2-methyl-5-(2-(2-methylmorpholino)acetamido)pyridin-3-yl)pyrazolo[5,1-b]thiazole-7-carboxamide]
IC50 [1]: 1.9 nM | IC50 (PDGFRβ; PDGFR Cellular IC50): 3.8 nM

Cc1ncc(NC(=O)CN2CCCC2(C)C)cc1NC(=O)c1cnn2cc(-n3ncc4cccnc43)sc12 [Example 259, N-(5-(2-(2,2-dimethylpyrrolidin-1-yl)acetamido)-2-methylpyridin-3-yl)-2-(1H-pyrazolo[3,4-b]pyridin-1-yl)pyrazolo[5,1-b]thiazole-7-carboxamide]
IC50 [1]: 2.8 nM | IC50 (PDGFRβ; read-out: PDGFR Cellular IC50): 3.9 nM

Cc1ncc(NC(=O)CN(C)C2CCOCC2)cc1NC(=O)c1cnn2cc(-c3cnn(CC#N)c3)sc12 [Example 299, 2-(1-(cyanomethyl)-1H-pyrazol-4-yl)-N-(2-methyl-5-(2-(methyl(tetrahydro-2H-pyran-4-yl)amino)acetamido)pyridin-3-yl)pyrazolo[5,1-b]thiazole-7-carboxamide]
IC50 [1]: 6 nM | IC50 (PDGFRβ; read-out: PDGFR Cellular IC50): 102 nM

COc1ncccc1-c1cn2ncc(C(=O)Nc3cc(NC(=O)C[C@@H]4CCCN4C(C)C)cnc3C)c2s1 [Example 323, (S)—N-(5-(2-(1-isopropylpyrrolidin-2-yl)acetamido)-2-methylpyridin-3-yl)-2-(2-methoxypyridin-3-yl)pyrazolo[5,1-b]thiazole-7-carboxamide]
IC50 [1]: 1.7 nM | IC50 (PDGFRβ; read-out: PDGFR Cellular IC50): 2.8 nM

Cc1ncc(NC(=O)CN2CCC3(CCCO3)C2)cc1NC(=O)c1cnn2cc(-c3cnn(C)c3)sc12 (centres unmarked) [Example 21, N-(5-(2-(1-oxa-7-azaspiro[4.4]nonan-7-yl)acetamido)-2-methylpyridin-3-yl)-2-(1-methyl-1H-pyrazol-4-yl)pyrazolo[5,1-b]thiazole-7-carboxamide]
IC50 [1]: 5.7 nM | IC50 (PDGFRβ; read-out: PDGFR Cellular IC50): 10.9 nM

COc1ncccc1-c1cn2ncc(C(=O)Nc3cc(NC(=O)CN4CCCC5(CC5)C4)cnc3C)c2s1 [Example 321, N-(5-(2-(5-azaspiro[2.5]octan-5-yl)acetamido)-2-methylpyridin-3-yl)-2-(2-methoxypyridin-3-yl)pyrazolo[5,1-b]thiazole-7-carboxamide]
IC50 [1]: 1 nM | IC50 (PDGFRβ; read-out: PDGFR Cellular IC50): 1.2 nM

CC(=O)Nc1cc(-c2cn3ncc(C(=O)Nc4cc(NC(=O)CN5CC(C)(C)C5)cnc4C)c3s2)ccn1 [Example 273, 2-(2-acetamidopyridin-4-yl)-N-(5-(2-(3,3-dimethylazetidin-1-yl)acetamido)-2-methylpyridin-3-yl)pyrazolo[5,1-b]thiazole-7-carboxamide]
IC50 [1]: 3.6 nM | IC50 (PDGFRβ; read-out: PDGFR Cellular IC50): 13.7 nM

Cc1ncc(NC(=O)CC23CCCN2CCC3)cc1NC(=O)c1cnn2cc(-c3cnn(C)c3)sc12 [Example 302, 2-(1-methyl-1H-pyrazol-4-yl)-N-(2-methyl-5-(2-(tetrahydro-1H-pyrrolizin-7a(5H)-yl)acetamido)pyridin-3-yl)pyrazolo[5,1-b]thiazole-7-carboxamide]
IC50 [1]: 61.2 nM | IC50 (PDGFRβ; read-out: PDGFR Cellular IC50): 7 nM
